Reference: ChEMBL document CHEMBL2202978, “Synthesis and antiviral activity of novel HCV NS3 protease inhibitors with P4 capping groups” (Bioorg Med Chem Lett, 2012)

Legend:
[1] = Inhibition of HCV subtype 1a NS3/4A protease (Ac-DE-Dap(QXL520)-EE-Abu-psi-[COO]-ASC(5-FAMsp)-NH2 as substrate by FRET analysis; parameters: species or system Hepatitis C virus subtype 1a
Hepatitis C virus [2] = experiment: Antiviral activity against HCV subtype 1b expressing NS3/4A D168V mutant protease infected in ET cells after 72 hrs; assay type: functional, organism-based, Hepacivirus hominis; conditions: genotype 1b
Hepatitis C virus [3] = experiment: Antiviral activity against HCV subtype 1b expressing NS3/4A A156T mutant protease infected in ET cells after 72 hrs; assay type: functional, organism-based, Hepacivirus hominis; conditions: genotype 1b
Hepatitis C virus [4] = experiment: Antiviral activity against HCV subtype 1b expressing NS3/4A R115K mutant protease infected in ET cells after 72 hrs; assay type: functional, organism-based, Hepacivirus hominis; conditions: genotype 1b
Hepatitis C virus [5] = experiment: Antiviral activity against HCV subtype 1b expressing NS3/4A A156S mutant protease infected in ET cells after 72 hrs; assay type: functional, organism-based, Hepacivirus hominis; conditions: genotype 1b
Hepatitis C virus [6] = experiment: Antiviral activity against HCV subtype 1b expressing NS3/4A D168A mutant protease infected in ET cells after 72 hrs; assay type: functional, organism-based, Hepacivirus hominis; conditions: genotype 1b
Hepatitis C virus [7] = experiment: Antiviral activity against HCV subtype 1b expressing wild type NS3/4A protease infected in ET cells after 72 hrs; assay type: functional, organism-based, Hepacivirus hominis; conditions: genotype 1b
Hepatitis C virus [8] = experiment: Antiviral activity against HCV subtype 1b infected in human hepatoma cells; assay type: functional, organism-based, Hepacivirus hominis; conditions: genotype 1b
Hepatitis C virus [9] = experiment: Antiviral activity against HCV subtype 1b expressing NS3/4A A156V mutant protease infected in ET cells after 72 hrs; assay type: functional, organism-based, Hepacivirus hominis; conditions: genotype 1b
Hepatitis C virus [10] = experiment: Antiviral activity against HCV subtype 1a infected in human hepatoma cells; assay type: functional, organism-based, Hepacivirus hominis
[11] = AUC (0 to infinity) in Sprague-Dawley rat at 5 mg/kg, po; assay type: ADME, organism-based; parameters: time infinity, dose 5 mg/kg, route oral; conditions: plasma
[12] = Clearance in Sprague-Dawley rat at 1 mg/kg, iv; assay type: ADME, organism-based; parameters: dose 1 mg/kg, route intravenous; conditions: in vivo
[13] = Terminal half life in Sprague-Dawley rat at 5 mg/kg, po and 1 mg/kg, iv; assay type: ADME, organism-based; conditions: in vivo, read-out: beta t1/2 (converted)
[14] = Drug absorption in Sprague-Dawley rat portal vein at 5 mg/kg, po; assay type: ADME, organism-based; parameters: dose 5 mg/kg, route oral; conditions: read-out: Drug absorption
[15] = AUC in Sprague-Dawley rat at 1 mg/kg, iv; assay type: ADME, organism-based; parameters: dose 1 mg/kg, route intravenous; conditions: plasma
[16] = Oral bioavailability in Sprague-Dawley rat at 5 mg/kg; assay type: ADME, organism-based; conditions: in vivo

SMILES	IC50 [1]	EC50 (Hepatitis C virus [2])	EC50 (Hepatitis C virus [3])	EC50 (Hepatitis C virus [4])	EC50 (Hepatitis C virus [5])	EC50 (Hepatitis C virus [6])	EC50 (Hepatitis C virus [7])	EC50 (Hepatitis C virus [8])	EC50 (Hepatitis C virus [9])	EC50 (Hepatitis C virus [10])	AUC(0-inf) [11]	clearance [12]	half-life [13]	Fa [14]	AUC [15]	bioavailability [16]
COc1ccc2c(O[C@@H]3C[C@H]4C(=O)N[C@]5(C(=O)NS(=O)(=O)C6CC6)C[C@H]5/C=C\CCCCC[C@H](NC(=O)C5(OC)CCCC5)C(=O)N4C3)cc(-c3nc(C4CC4)cs3)nc2c1C	4 nM	234 nM	13 nM	25 nM	0.09 nM	50 nM	0.05 nM	0.3 nM	49 nM	0.3 nM	–	–	–	–	–	–
CC(C)(C)OC(=O)N[C@H]1CCCCC/C=C\[C@@H]2C[C@@]2(C(=O)NS(=O)(=O)C2CC2)NC(=O)[C@@H]2C[C@@H](OC(=O)N3Cc4cccc(F)c4C3)CN2C1=O [DANOPREVIR]	0.7 nM	26 nM	10 nM	82 nM	2 nM	39 nM	0.2 nM	–	8 nM	–	–	–	–	–	–	–
COc1ccc2c(O[C@@H]3C[C@H]4C(=O)N[C@]5(C(=O)NS(=O)(=O)C6CC6)C[C@H]5/C=C\CCCCC[C@H](NC(=O)C5(OC)CCC5)C(=O)N4C3)cc(-c3nc(C4CC4)cs3)nc2c1C	2 nM	263 nM	20 nM	44 nM	0.3 nM	91 nM	0.04 nM	0.1 nM	85 nM	0.2 nM	49.1 ng·h/mL	144 mL/min/kg	59.4 min	16.5%	117 ng·h/mL	8.2%
COc1ccc2c(O[C@@H]3C[C@H]4C(=O)N[C@]5(C(=O)NS(=O)(=O)C6CC6)C[C@H]5/C=C\CCCCC[C@H](NC(=O)C(C)=O)C(=O)N4C3)cc(-c3nc(C4CC4)cs3)nc2c1C	0.8 nM	–	–	–	–	–	–	0.6 nM	–	0.5 nM	–	–	–	–	–	–
COc1ccc2c(O[C@@H]3C[C@H]4C(=O)N[C@]5(C(=O)NS(=O)(=O)C6CC6)C[C@H]5/C=C\CCCCC[C@H](N5CCCC5=O)C(=O)N4C3)cc(-c3nc(C4CC4)cs3)nc2c1C	20 nM	3980 nM	219 nM	794 nM	6.2 nM	1350 nM	8.7 nM	24 nM	646 nM	42 nM	–	–	–	–	–	–
COc1ccc2c(O[C@@H]3C[C@H]4C(=O)N[C@]5(C(=O)NS(=O)(=O)C6CC6)C[C@H]5/C=C\CCCCC[C@H](N)C(=O)N4C3)cc(-c3nc(C4CC4)cs3)nc2c1C	1.3 nM	1660 nM	20 nM	155 nM	1.2 nM	229 nM	1 nM	1 nM	41 nM	0.7 nM	–	–	–	–	–	–
COc1ccc2c(O[C@@H]3C[C@H]4C(=O)N[C@]5(C(=O)NS(=O)(=O)C6CC6)C[C@H]5/C=C\CCCCC[C@H](NC(=O)C5(OC)CC5)C(=O)N4C3)cc(-c3nc(C4CC4)cs3)nc2c1C	1.6 nM	–	–	–	–	–	–	0.2 nM	–	0.2 nM	–	–	–	–	–	–
COc1ccc2c(O[C@@H]3C[C@H]4C(=O)N[C@]5(C(=O)NS(=O)(=O)C6CC6)C[C@H]5/C=C\CCCCC[C@H](NC(=O)N(C)C)C(=O)N4C3)cc(-c3nc(C4CC4)cs3)nc2c1C	0.5 nM	27 nM	0.5 nM	0.5 nM	0.05 nM	14 nM	0.03 nM	0.2 nM	2 nM	0.3 nM	–	–	–	–	–	–
COc1ccc2c(O[C@@H]3C[C@H]4C(=O)N[C@]5(C(=O)NS(=O)(=O)C6CC6)C[C@H]5/C=C\CCCCC[C@H](N5CCOC5=O)C(=O)N4C3)cc(-c3nc(C4CC4)cs3)nc2c1C	2.5 nM	3020 nM	107 nM	977 nM	3.5 nM	1820 nM	27 nM	14 nM	151 nM	17 nM	–	–	–	–	–	–
COc1ccc2c(O[C@@H]3C[C@H]4C(=O)N[C@]5(C(=O)NS(=O)(=O)C6CC6)C[C@H]5/C=C\CCCCC[C@H](NC(=O)C(=O)N5CCCC5)C(=O)N4C3)cc(-c3nc(C4CC4)cs3)nc2c1C	1.3 nM	–	–	–	–	–	–	0.4 nM	–	0.4 nM	–	–	–	–	–	–
COc1ccc2c(O[C@@H]3C[C@H]4C(=O)N[C@]5(C(=O)NS(=O)(=O)C6CC6)C[C@H]5/C=C\CCCCC[C@H](N/C(=N\C#N)NC(C)(C)C)C(=O)N4C3)cc(-c3nc(C4CC4)cs3)nc2c1C	2.5 nM	832 nM	27 nM	123 nM	0.5 nM	331 nM	0.3 nM	0.7 nM	78 nM	2.5 nM	–	–	–	–	–	–
COc1ccc2c(O[C@@H]3C[C@H]4C(=O)N[C@]5(C(=O)NS(=O)(=O)C6CC6)C[C@H]5/C=C\CCCCC[C@H](NC(=O)C(=O)N5CCCCC5)C(=O)N4C3)cc(-c3nc(C4CC4)cs3)nc2c1C	1 nM	151 nM	5.5 nM	14 nM	0.1 nM	49 nM	0.02 nM	0.4 nM	6.2 nM	0.5 nM	–	–	–	–	–	–
CCC[C@H](NC(=O)[C@@H]1[C@H]2CCC[C@H]2CN1C(=O)[C@@H](NC(=O)[C@@H](NC(=O)c1cnccn1)C1CCCCC1)C(C)(C)C)C(=O)C(=O)NC1CC1 [TELAPREVIR]	500 nM	207 nM	1140 nM	1780 nM	883 nM	638 nM	34 nM	–	1960 nM	–	–	–	–	–	–	–
COc1ccc2c(O[C@@H]3C[C@H]4C(=O)N[C@]5(C(=O)NS(=O)(=O)C6CC6)C[C@H]5/C=C\CCCCC[C@H](NC(=O)C(=O)NC5CCCCC5)C(=O)N4C3)cc(-c3nc(C4CC4)cs3)nc2c1C	6.3 nM	–	–	–	–	–	–	0.5 nM	–	0.5 nM	–	–	–	–	–	–
COc1ccc2c(O[C@@H]3C[C@H]4C(=O)N[C@]5(C(=O)NS(=O)(=O)C6CC6)C[C@H]5/C=C\CCCCC[C@H](NC(=O)C(=O)NC(C)(C)C)C(=O)N4C3)cc(-c3nc(C4CC4)cs3)nc2c1C	4 nM	–	–	–	–	–	–	0.7 nM	–	0.6 nM	–	–	–	–	–	–
COc1ccc2c(O[C@@H]3C[C@H]4C(=O)N[C@]5(C(=O)NS(=O)(=O)C6CC6)C[C@H]5/C=C\CCCCN(C)C(=O)[C@@H]4C3)cc(-c3nc(C(C)C)cs3)nc2c1C [SIMEPREVIR]	10 nM	140 nM	86 nM	56 nM	0.3 nM	149 nM	1 nM	1 nM	344 nM	2 nM	–	–	–	–	–	–
CCOC(=O)C(=O)N[C@H]1CCCCC/C=C\[C@@H]2C[C@@]2(C(=O)NS(=O)(=O)C2CC2)NC(=O)[C@@H]2C[C@@H](Oc3cc(-c4nc(C5CC5)cs4)nc4c(C)c(OC)ccc34)CN2C1=O	1 nM	–	–	–	–	–	–	1.2 nM	–	2.6 nM	–	–	–	–	–	–
